Test results taken from patent US20030206858A1, “Metal complex-containing pharmaceutical agents” (Schering AG, priority 1986, published 2003).

Assay: 153Gd remaining in the rat 7 days after i.v. injection of GdDTPA/dimeglumine
Format: in vivo
Conditions: rats, one week after i.v. injection of GdDTPA; 10% calcium trisodium DTPA added to the contrast medium, versus no additive

reduction of the gadolinium concentration in the bones: about 45%
reduction of the portion of gadolinium remaining in the bodies: greater than 30%
SMILES: O=C([O-])CN(CCN(CC(=O)[O-])CC(=O)[O-])CCN(CC(=O)[O-])CC(=O)[O-].[Ca+2].[Na+].[Na+].[Na+] [calcium trisodium DTPA, Calcium-trisodium salt of DTPA]
